Reference: patent publication EP3682883A1, “QUINOLINE DERIVATIVE FOR TREATMENT OF NEUROENDOCRINE TUMORS” (Chia Tai Tianqing Pharmaceutical Group Co., Ltd., priority 2017, dated 2019)

Legend:
Type in all cases: in vivo, human
[1] = tested on: ampullary neuroendocrine tumor; assay: Clinical case Example 10: treatment of a patient, CT scan of metastatic lesions; settings: prior therapy in patient history; 10mg qd orally; CT and MRI on May 25, 2018
Excerpt: A patient, underwent a laparotomy on August 18, 2016, the gallbladder, distal part of the stomach, duodenum, and part of the pancreas were removed. […] The patient was diagnosed with ampullary neuroendocrine tumor (high proliferative activity, mitotic count, […]) on November 4, 2016, which was located in the ampulla, the common bile duct, duodenal papilla and major pancreatic duct were invaded, intravascular tumor thrombus was visible and pancreatic tissue was also invaded, immunohistochemistry: AFP (-).
10mg of everolimus (qd) was administered orally from February 7 to May 25, 2018, and the efficacy was evaluated as SD on March 29, 2018.
A daily dose of 12 mg of dihydrochloride of Compound I capsule was given once a day from July 4, 2018 (two-week administration period and one-week withdrawal period, i.e. three weeks as one treatment cycle).

[2] = tested on: retroperitoneal neuroendocrine tumor; assay: Clinical case Example 5: treatment of a patient, CT scan of target lesions; settings: prior therapy in patient history
[3] = tested on: neuroendocrine tumor which tend to be atypical carcinoid; assay: Clinical case Example 4: treatment of a patient, CT scan of target lesions; settings: prior therapy in patient history; 4 mg once a month; after two cycles
Experimental: A patient was diagnosed with neuroendocrine tumor which tend to be atypical carcinoid after a chest tumor puncture by pathology exam, then the patient was treated with chemotherapy of paclitaxel, etoposide and cisplatin for three cycles, a CT scan was performed after the treatment, efficacy of the therapy was evaluated as SD, followed by Right anterior mediastinal mass resection and partial right upper lobe resection. […] Local chest radiotherapy was performed in the first to second month after operation, and evaluated as SD after the treatment, during which III° radiation esophagitis occurred. […] Temozolomide and capecitabine was then given for 2 cycles from the 23rd month to 25th month after operation, and efficacy was evaluated as SD (large), during this period, pain in both lower extremities occurred, and even got worse. Then 4 mg of zoledronic acid was given once a month, the efficacy was evaluated as PD by CT scan after two cycles of the treatment, followingly, Shanlong (octreotide acetate microspheres for injection) was given for 1 cycle, the efficacy was evaluated as PD by CT scan which was performed after 27 months postoperatively, and the sum of the target lesion diameters was 179 mm. […]

## CO[C@H]1C[C@@H]2CC[C@@H](C)[C@@](O)(O2)C(=O)C(=O)N2CCCC[C@H]2C(=O)O[C@H]([C@H](C)C[C@@H]2CC[C@@H](OCCO)[C@H](OC)C2)CC(=O)[C@H](C)/C=C(\C)[C@@H](O)[C@@H](OC)C(=O)[C@H](C)C[C@H](C)/C=C/C=C/C=C/1C [everolimus]
[1]
  CT and MRI result (prior therapy): the disease progressed

## CCN(CC)CCNC(=O)c1c(C)[nH]c(/C=C2\C(=O)Nc3ccc(F)cc32)c1C [sunitinib malate]
[2]; after Saisheng and thymosin
  efficacy evaluated (prior therapy): PD (the sum of the diameters of target lesions of tumor increased by more than 20% from the baseline level)

## O=P(O)(O)C(O)(Cn1ccnc1)P(=O)(O)O [zoledronic acid]
[3]
  efficacy evaluated by CT scan (prior therapy): PD (the sum of the diameters of target lesions of tumor increased by more than 20% from the baseline level)

## thymosin
[2]; Saisheng and thymosin given together
  reexamination (prior therapy): no response
